Experimental findings from patent US5279811A, “Ester-substituted diaminedithiols and radiolabeled complexes thereof” (The Du Pont Merck Pharmaceutical Company, priority 1988, dated 1994) are described below.

A short description of this data set: solubility. It counts as physicochemical. Conditions: all solvents except aqueous base.

With `O=C(O)C(CS)NCCNC(CS)C(=O)O` [N,N'-1,2-ethylenediylbis-L-cysteine], the solubility entry is on record as “insoluble in all solvents except aqueous base”.
